Each structure is given as a SMILES string.

The target of this test is T1, α-hSlo (BKCa channel α-subunit) (Homo sapiens, UniProt Q12791).
T1 construct: gene KCNMA1; α-hSlo expressed in HEK293T cells
Put plainly: patch clamp of α-hSlo-expressing HEK293T cells (Figure S1). Type of test: cell-based. Background: Patch clamp records ionic current or voltage across a cell membrane.

T1 sequence (Q12791 whole entry): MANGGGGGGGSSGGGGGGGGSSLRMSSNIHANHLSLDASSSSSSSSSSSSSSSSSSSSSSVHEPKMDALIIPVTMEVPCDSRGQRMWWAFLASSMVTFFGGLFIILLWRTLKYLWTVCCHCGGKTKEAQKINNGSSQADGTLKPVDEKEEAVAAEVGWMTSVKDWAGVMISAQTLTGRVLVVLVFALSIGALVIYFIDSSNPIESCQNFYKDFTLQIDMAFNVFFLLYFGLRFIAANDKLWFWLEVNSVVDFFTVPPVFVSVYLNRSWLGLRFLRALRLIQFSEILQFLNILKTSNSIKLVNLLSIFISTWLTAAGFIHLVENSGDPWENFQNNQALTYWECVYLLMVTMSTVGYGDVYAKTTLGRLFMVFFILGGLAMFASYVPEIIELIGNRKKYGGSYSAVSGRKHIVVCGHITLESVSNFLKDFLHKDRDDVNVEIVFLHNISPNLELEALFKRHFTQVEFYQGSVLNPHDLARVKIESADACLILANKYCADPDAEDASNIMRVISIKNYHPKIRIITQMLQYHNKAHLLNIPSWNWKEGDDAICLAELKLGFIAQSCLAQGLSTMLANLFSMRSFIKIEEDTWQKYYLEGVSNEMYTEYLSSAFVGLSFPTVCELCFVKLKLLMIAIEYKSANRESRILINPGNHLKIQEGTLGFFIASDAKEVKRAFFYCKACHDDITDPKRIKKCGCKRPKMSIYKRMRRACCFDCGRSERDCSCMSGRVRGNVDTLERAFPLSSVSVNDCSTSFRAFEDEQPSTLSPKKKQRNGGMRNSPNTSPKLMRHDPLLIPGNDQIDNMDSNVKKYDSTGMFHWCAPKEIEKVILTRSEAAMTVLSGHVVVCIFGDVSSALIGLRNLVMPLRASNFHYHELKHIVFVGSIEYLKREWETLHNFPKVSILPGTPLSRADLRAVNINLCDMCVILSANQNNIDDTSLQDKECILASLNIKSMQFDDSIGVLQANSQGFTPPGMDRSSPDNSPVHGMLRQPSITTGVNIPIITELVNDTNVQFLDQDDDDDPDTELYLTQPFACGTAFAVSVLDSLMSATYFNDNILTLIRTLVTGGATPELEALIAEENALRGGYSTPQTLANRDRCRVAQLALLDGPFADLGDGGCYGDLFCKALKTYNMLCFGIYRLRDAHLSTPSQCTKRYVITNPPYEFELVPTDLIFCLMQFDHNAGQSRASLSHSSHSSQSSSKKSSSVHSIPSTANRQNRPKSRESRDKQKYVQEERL

Take `O=c1cc(CCl)nc2c(-c3cccc4ccccc34)c(C(F)(F)F)[nH]n12` [QO-40, 5-(chloromethyl)-3-(naphthalen-1-yl)-2-(trifluoromethyl)pyrazolo[1,5-a]pyrimidin-7(4H)-one]: the “patch clamp of α-hSlo-expressing HEK293T cells (Figure S1)” value is “In HEK293T cells expressing α-hSlo, QO-40 stimulated BKCa channel activity”.

Source of the values: PMC8143083, “Effective Activation of BKCa Channels by QO-40 (5-(Chloromethyl)-3-(Naphthalen-1-yl)-2-(Trifluoromethyl)Pyrazolo [1,5-a]pyrimidin-7(4H)-one), Known to Be an Opener of KCNQ2/Q3 Channels” (Pharmaceuticals, 2021).
